Data taken from patent publication US10308631B2, “Selective anti-cancer compounds” (NATIONAL UNIVERSITY OF SINGAPORE, priority 2015, dated 2019).

Legend:
Aqueous solubility = type: physicochemical; conditions: compared with Compound 1
[1] = system: isogenic non-transformed (normal) BJ cells; assay: PI staining and FACS analysis, sub-G1 cell death; type: cell-based, human; conditions: 48 h
Protocol: FIG. 5A is a histogram showing the ability of Compound 1 (a131) and its derivatives Compound 2 (a156), Compound 16 (b5), Compound 17 (b9), all in Group 1; Compound 29 (a219), Compound 13 (b12), Compound 11 (b15), Compound 12 (b16), Compound 25 (a166), all in Group 2; and Compound 3 (a159) from Group 3, to induce cancer selective cell death. Isogenic non-transformed (normal) and oncogene-transformed BJ cells were treated with each compound for 48 h and cells were stained with propidium iodide (PI) and subjected to FACS analysis. The percentage of cells in sub-G1 phase is indicative of the extent of cell death. […] In contrast, the ability of the compounds in Groups 2 and 3 to induce cancer selective cell death was markedly compromised (or reduced).
The Compounds 25 (a166) and 3 (a159) were selected from Group 2 and Group 3, respectively. Isogenic non-transformed normal and oncogene-transformed BJ cells were treated with or without 0.3 μM or 0.6 μM Compound 3 (a159) alone or together with 1.25 μM Compound 25 (a166) for 48 h. Cells were stained with propidium iodide (PI) and subjected to FACS analysis.
Isogenic non-transformed and oncogene-transformed human fibroblast BJ cell lines were cultured in DMEM supplemented with 10% FBS. The cells were treated with Compound 1 (2.5 μM, DMSO). 48 h after treatment, the cells were fixed with ethanol at −30° C. overnight and stained with 20 μg/mL propidium iodide (PI) and 10 μg/mL RNase A for 30 min. These cells were then subjected to flow cytometry (FACS) analysis using MACSQuant (Miltenyi Biotec) to count the percentage of apoptotic cells in sub-G1 peak.
The above procedure was repeated for Group 1 Compounds 2, 16 and 17, Group 2 Compounds 29, 13, 11, 12 and 25 at a concentration of 10 μM, and Group 3 Compound 3 at a concentration of 5 μM.
Isogenic non-transformed normal and oncogene-transformed BJ cells were cultured as in Biology Example 3. The cells were treated with a combination of Compound 3 (Group 3, at a concentration of 0.3 μM or 0.6 μM), and Compound 25 (Group 2, at a concentration of 1.25 μM) for 48 hours. Controls using DMSO, Compound 3 and Compound 25 alone (at the concentrations mentioned above) were also performed.

[2] = system: non-transformed normal BJ cells; assay: Reversibility of cell cycle arrest after wash-out (cell counting); type: cell-based, human; conditions: 5 μM for 2, 3, 6 or 11 days, then wash-out
Description: Non-transformed normal BJ cells were synchronized in G1 phase of the cell cycle by culturing in serum-starved conditions (0.1% FBS) for 2 days. Subsequently, cells were synchronously released in fresh media with 10% FBS and further treated with Compound 1 (a131) for 2, 3, 6 or 11 days. After treatment for the required amount of time, Compound 1 (a131) was removed by washing cells twice with fresh media, and culturing of the washed cells was continued in fresh media for up to 11 days. Cells were harvested and total numbers of cells, counted using automated Sceptor cell counter, were plotted with standard deviation (triplicates).
As shown in Biology Examples 5 and 7, Compound 1 and its derivatives, which inhibit both lysosome function and mitosis, induce cell death only in transformed BJ cells, while inducing cell cycle arrest in isogenic non-transformed BJ cells. However, it was not fully clear if the cell cycle arrest was permanent or reversible. Therefore, to evaluate whether the effect was permanent or reversible, non-transformed normal BJ cells were synchronized in the G1 phase of the cell cycle by culturing them in DMEM media with 0.1% FBS for 2 days. […] At various time-points, the adherent cells were harvested with trypsin (Invitrogen) and the total number of cells was counted using automated Sceptor cell counter (Millipore).

[3] = system: phospho-histone H3 (pH3) in HeLa cells; assay: Immunoblot analysis of phospho-histone H3 in HeLa cells; type: cell-based, human; conditions: 6 h
Protocol: FIG. 1 is a diagrammatic representation of an immunoblot analysis showing the dual inhibition of the autophagic process and mitotic progression by Compound 1 (a131). HeLa cells were treated with the indicated μM concentration of Compound 1 (a131) or chloroquine for 6 h. Cells were harvested and total lysates were analysed by detecting the mitotic marker phospho-histone H3 at serine 10 (pH3 (Ser10)) and the autophagosome marker LC3. The band intensity ratios of LC3-II/LC3-I as compared to DMSO control (lane 1, 0 μM chloroquine, and lane 7, 0 μM a131) are indicated (Ratio). Antibodies raised against β-actin were used as an internal loading control.
The ability of Compound 1 to inhibit lysosome function was examined using immunoblotting. HeLa cervical cancer cells were cultured in Dulbecco's modified Eagle's medium (DMEM) supplemented with 10% Fetal Bovine Serum (FBS, Thermo Scientific). […]
Defects in lysosome function and inhibition of autophagy can be measured by accumulation of LC3-phosphatidylethanolamine conjugated non-soluble form (LC3-II), which are converted from soluble LC3-I. Thus, antibodies raised against LC3 (Cell Signaling, Cat#4108) were used to determine lysosomal function and integrity. […] The inhibitory ability of Compound 1 was also quantitatively compared to CQ.

CN1CCN(CC(=O)n2cc(/C(C#N)=C/c3cccc4cnccc34)c3ccccc32)CC1 [Compound 16, (Z)-3-(isoquinolin-5-yl)-2-(1-(2-(4-methylpiperazin-1-yl)acetyl)-1H-indol-3-yl)acrylonitrile]
aqueous solubility (Aqueous solubility): improved aqueous solubility

N#C/C(=C\c1cccc2ncccc12)c1c[nH]c2ccccc12 [Compound 3, (Z)-2-(1H-indol-3-yl)-3-(quinolin-5-yl)acrylonitrile]
cell death (population of cells in sub-G1) ([1]; normal BJ cells (FIG. 5A)): significantly induced cell death | cell death ([1]; Compound 3 0.3 or 0.6 μM, Compound 25 1.25 μM, alone or in combination): did not lead to a significant increase in cell death

N#C/C(=C\c1cccc2cnccc12)c1c[nH]c2ccccc12 [Compound 1, (Z)-2-(1H-indol-3-yl)-3-(isoquinolin-5-yl)acrylonitrile]
recovery of proliferation after removal of compound [2]: removal of Compound 1 from the media is sufficient to enable these cells to recover from cell cycle arrest | inhibition of mitotic progression (levels of phospho-histone H3) [3]: potently inhibits mitotic progression
